This passage reports IC50 results from patent US5852210A, “Cinnamic acid derivatives” (G. D. Searle & Co., priority 1997, dated 1998).

Assay [1] addresses T1, Human vitronectin receptor (αv β3) (Homo sapiens, UniProt P05106+P06756).
T1 construct: Human vitronectin receptor (αv β3) was purified from human placenta; from tissue; host or cells: human placenta
In words: Vitronectin adhesion assay (solid phase receptor assay, αvβ3). It counts as binding. Particulars: inhibition of binding of biotinylated human vitronectin (1 nM) to purified receptor; Table I; read-out: AvB3 IC50. Put shortly: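 Placental αvβ3 (100 ng/well) coated in TBS with 1 mM Ca, Mg, Mn, pH 7.4, then compound competed with 1 nM biotinylated vitronectin for 2 h at room temperature (top compound concentration 1.0×10^-4 M). Bound ligand detected with HRP anti-biotin/OPD at 450 nm; values normalized to maximum binding, four-parameter curve fit.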

The target in assay [2] is T2, Human fibrinogen receptor (αIIb β3) (Homo sapiens, UniProt P05106+P08514).
T2 construct: Human fibrinogen receptor (αIIb β3) was purified from outdated platelets; from tissue; host or cells: human outdated platelets
Nature of the assay: Purified IIb/IIIa receptor assay (solid phase receptor assay). Particulars: inhibition of binding of biotinylated human vitronectin (1 nM) to purified receptor; Table I. In a few lines: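 Platelet-purified αIIbβ3 (100 ng/well) coated overnight at 4 °C, then competed 2 h at room temperature against 1 nM biotinylated human vitronectin in TBS with 1.0 mM Ca/Mg/Mn, pH 7.4, 1% BSA; top compound 1.0×10^-4 M. Bound ligand detected by HRP anti-biotin, A450, normalized to maximum binding, four-parameter fit.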

One may read the IC50 as the concentration at which inhibition is half-maximal.

Counter-ions that a name gives are not always drawn.

T2 sequence (P08514 32-887 limits assumed): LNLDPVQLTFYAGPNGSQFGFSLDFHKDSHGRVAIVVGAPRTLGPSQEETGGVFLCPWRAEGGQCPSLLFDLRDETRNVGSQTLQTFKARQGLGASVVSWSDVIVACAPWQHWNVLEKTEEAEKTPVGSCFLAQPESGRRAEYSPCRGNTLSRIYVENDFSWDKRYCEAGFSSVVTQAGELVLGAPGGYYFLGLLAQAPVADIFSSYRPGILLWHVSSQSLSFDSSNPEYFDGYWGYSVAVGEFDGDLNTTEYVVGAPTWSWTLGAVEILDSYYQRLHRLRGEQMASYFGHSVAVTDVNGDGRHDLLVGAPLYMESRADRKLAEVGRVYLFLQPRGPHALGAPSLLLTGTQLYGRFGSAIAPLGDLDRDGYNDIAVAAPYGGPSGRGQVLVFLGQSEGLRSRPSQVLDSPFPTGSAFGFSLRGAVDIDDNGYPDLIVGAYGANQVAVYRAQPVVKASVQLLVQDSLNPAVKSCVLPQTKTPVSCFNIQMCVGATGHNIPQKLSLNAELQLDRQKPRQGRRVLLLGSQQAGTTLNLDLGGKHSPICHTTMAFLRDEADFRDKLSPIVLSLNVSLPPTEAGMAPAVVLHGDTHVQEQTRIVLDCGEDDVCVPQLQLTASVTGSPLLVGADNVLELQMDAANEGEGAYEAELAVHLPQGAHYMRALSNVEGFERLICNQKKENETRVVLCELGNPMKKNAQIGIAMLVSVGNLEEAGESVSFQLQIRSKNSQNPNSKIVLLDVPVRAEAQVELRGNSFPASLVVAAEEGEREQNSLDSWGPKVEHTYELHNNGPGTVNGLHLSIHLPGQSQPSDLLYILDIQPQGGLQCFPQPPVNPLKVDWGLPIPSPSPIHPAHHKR
T2 sequence (P08514 891-1039 limits assumed): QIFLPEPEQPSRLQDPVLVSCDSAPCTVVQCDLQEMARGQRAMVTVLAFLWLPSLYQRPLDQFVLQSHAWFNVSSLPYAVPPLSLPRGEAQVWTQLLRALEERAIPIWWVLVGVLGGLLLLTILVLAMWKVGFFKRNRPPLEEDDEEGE
T2 sequence (P05106 27-788): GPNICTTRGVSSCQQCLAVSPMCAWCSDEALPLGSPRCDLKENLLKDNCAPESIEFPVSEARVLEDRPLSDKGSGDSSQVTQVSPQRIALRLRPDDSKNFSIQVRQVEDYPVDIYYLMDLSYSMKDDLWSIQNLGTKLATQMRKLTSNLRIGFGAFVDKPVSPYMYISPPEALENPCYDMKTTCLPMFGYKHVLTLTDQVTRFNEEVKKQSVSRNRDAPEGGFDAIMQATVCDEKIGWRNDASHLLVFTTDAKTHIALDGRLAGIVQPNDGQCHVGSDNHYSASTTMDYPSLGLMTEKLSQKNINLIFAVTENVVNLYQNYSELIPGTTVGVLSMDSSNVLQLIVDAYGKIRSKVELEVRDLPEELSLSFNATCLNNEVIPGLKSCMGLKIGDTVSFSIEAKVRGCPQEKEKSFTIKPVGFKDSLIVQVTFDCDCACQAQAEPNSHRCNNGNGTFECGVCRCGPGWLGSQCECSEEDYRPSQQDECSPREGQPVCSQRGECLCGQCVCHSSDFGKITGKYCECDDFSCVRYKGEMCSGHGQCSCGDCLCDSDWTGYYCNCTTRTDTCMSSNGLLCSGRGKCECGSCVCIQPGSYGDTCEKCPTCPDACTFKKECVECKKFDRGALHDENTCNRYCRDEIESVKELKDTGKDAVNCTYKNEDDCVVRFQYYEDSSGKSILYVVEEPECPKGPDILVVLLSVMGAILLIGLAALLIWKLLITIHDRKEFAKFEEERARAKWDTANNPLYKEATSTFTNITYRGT
T1 sequence (P06756 31-889 limits assumed): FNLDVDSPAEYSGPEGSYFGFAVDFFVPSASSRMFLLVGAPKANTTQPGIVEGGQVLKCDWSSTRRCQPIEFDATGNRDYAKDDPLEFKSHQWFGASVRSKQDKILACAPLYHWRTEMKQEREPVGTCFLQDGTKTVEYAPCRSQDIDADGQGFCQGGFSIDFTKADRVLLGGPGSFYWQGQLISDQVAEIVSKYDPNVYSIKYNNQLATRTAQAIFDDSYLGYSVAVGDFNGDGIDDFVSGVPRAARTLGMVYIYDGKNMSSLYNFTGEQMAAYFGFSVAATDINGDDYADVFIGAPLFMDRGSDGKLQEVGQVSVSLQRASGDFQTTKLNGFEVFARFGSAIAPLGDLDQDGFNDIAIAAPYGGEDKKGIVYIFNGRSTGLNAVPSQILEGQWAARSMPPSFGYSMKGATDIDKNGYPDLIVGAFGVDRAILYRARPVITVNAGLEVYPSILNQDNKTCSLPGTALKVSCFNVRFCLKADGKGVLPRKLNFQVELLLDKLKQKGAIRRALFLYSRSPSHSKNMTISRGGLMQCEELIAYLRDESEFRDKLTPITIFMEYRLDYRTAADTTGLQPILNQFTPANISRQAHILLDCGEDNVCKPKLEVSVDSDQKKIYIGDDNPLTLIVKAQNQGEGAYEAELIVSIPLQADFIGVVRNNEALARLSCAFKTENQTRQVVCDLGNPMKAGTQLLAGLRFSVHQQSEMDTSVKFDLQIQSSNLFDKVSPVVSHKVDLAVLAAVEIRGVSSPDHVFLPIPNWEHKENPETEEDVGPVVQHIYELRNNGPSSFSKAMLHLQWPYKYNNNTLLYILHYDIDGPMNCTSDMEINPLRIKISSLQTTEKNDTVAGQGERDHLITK
T1 sequence (P06756 891-1048 limits assumed): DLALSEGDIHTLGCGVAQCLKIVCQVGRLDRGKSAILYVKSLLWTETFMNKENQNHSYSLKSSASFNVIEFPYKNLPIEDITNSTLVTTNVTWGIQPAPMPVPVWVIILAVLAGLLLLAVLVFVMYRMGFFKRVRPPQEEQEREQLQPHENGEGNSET
T1 sequence (P05106 27-788): as the sequence (P05106 27-788) above

Turning to `N=C(N)Nc1cccc(C(=O)/C=C/c2cccc(/C=C/C(=O)O)c2)c1` [Example 89, 3-[3-[3-[3-[(aminoiminomethyl)amino]phenyl]-3-oxopropenyl]phenyl]propenoic acid, trifluoroacetate salt hydrate], the IC50 was found to be 196 nM in assay [1] and 1260 nM in assay [2].
Turning to `O=C(O)/C=C/c1cccc(C(=O)/C=C/c2cccc(NC3=NCCCN3)c2)c1` [Example 90, 3-[3-[1-oxo-3-[3-[(1,4,5,6-tetrahydropyrimidin-2-yl)amino]phenyl]-2-propenyl]phenyl]propenoic acid, trifluoroacetate salt], the IC50 was determined as 6.98 nM in assay [1] and 2320 nM in assay [2].
For the compound `N=C(N)Nc1cccc(C(=O)CCc2cccc(/C=C/C(=O)O)c2)c1` [Example 91, 3-[3-[3-[3-[(aminoiminomethyl)amino]phenyl]-3-oxopropyl]phenyl]propenoic acid, trifluoroacetate salt hydrate], the IC50 in assay [1] worked out at 1270 nM; in assay [2], 8670 nM.
Turning to `N=C(N)Nc1cccc(CCC(=O)c2cccc(/C=C/C(=O)O)c2)c1` [Example 92, 3-[3-[3-[3-[(aminoiminomethyl)amino]phenyl]-1-oxopropyl]phenyl]propenoic acid, trifluoroacetate salt], the IC50 in assay [1] is 48.9 nM; in assay [2], 4010 nM.
With `O=C(O)/C=C/c1cccc(C(=O)CCc2cccc(NC3=NCCCN3)c2)c1` [Example 93, 3-[3-[1-oxo-3-[3-[(1,4,5,6-tetrahydropyrimidin-2-yl)amino]phenyl]propyl]phenyl]propenoic acid, trifluoroacetate salt], the results for the IC50 in assay [1] and in assay [2] were 6.1 nM and 5990 nM, respectively.
The corresponding values for `O=C(O)/C=C/c1cccc(/C=C/C(=O)c2cccc(NC3=NCCCN3)c2)c1` [Example 94, 3-[3-[3-oxo-3-[3-[(1,4,5,6-tetrahydropyrimidin-2-yl)amino]phenyl]-1-propenyl]phenyl]propenoic acid, trifluoroacetate salt] are 11.3 nM and 2710 nM.
Regarding `O=C(O)/C=C/c1cccc(CCC(=O)c2cccc(NC3=NCCCN3)c2)c1` [Example 95, 3-[3-[3-oxo-3-[3-[(1,4,5,6-tetrahydropyrimidin-2-yl)amino]phenyl]propyl]phenyl]propenoic acid, trifluoroacetate salt hydrate], the IC50 in assay [1] was 58.5 nM; in assay [2], 11800 nM.
The corresponding values for `O=C(O)/C=C/c1ccc(/C=C/c2cccc(NC3=NCCCN3)c2)cc1` [Example 98, 3-[4-[2-[3-[(1,4,5,6-tetrahydropyrimidin-2-yl)amino]phenyl]ethenyl]phenyl]propenoic acid, trifluoroacetate salt] are 5.08 nM and 222 nM.
Regarding `O=C(O)/C=C/c1ccc(/C=C/c2cccc(NC3=NCCN3)c2)cc1` [Example 99, 3-[4-[2-[3-[(4,5-dihydro-1H-imidazol-2-yl)amino]phenyl]ethenyl]phenyl]propenoic acid, trifluoroacetate salt], the IC50 in assay [1] came out at 26.5 nM; in assay [2], 722 nM.
Take `O=C(O)/C=C/c1ccc(/C=C/c2cccc(NC3=NCCCS3)c2)cc1` [Example 100, 3-[4-[2-[3-[(5,6-dihydro-4H-thiazin-2-yl)amino]phenyl]ethenyl]phenyl]propenoic acid, trifluoroacetate salt]: the IC50 worked out at 30.6 nM in assay [1] and 664 nM in assay [2].
The corresponding values for `O=C(O)/C=C/c1ccc(OCc2cccc(NC3=NCCCN3)c2)cc1` [Example 101, 3-[4-[[3-[(1,4,5,6-tetrahydropyrimidin-2-yl)amino]phenyl]methoxy]phenyl]propenoic acid, trifluoroacetate salt] are 42.6 nM and 118 nM.
As for `N=C(N)Nc1cccc(-c2nc(-c3cccc(/C=C/C(=O)O)c3)co2)c1` [Example 102, 3-[3-[2-[3-[(aminoiminomethyl)amino]phenyl]oxazol-4-yl]phenyl]propenoic acid, trifluoroacetate salt], the IC50 in assay [1] was found to be 1940 nM; in assay [2], 4480 nM.
For the compound `N=C(N)Nc1cccc(-c2coc(-c3ccc(C=CC(=O)O)cc3)n2)c1` [Example 103, 3-[4-[4-[3-[(aminoiminomethyl)amino]phenyl]oxazol-2-yl]phenyl]propenoic acid], the IC50 was 32100 nM in assay [1] and 0.9 nM in assay [2].
For the compound `N=C(N)Nc1cccc(-c2ncc(-c3ccc(/C=C/C(=O)O)cc3)[nH]2)c1` [Example 104, 3-[4-[2-[3-[(aminoiminomethyl)amino]phenyl]-1H-imidazol-5-yl]phenyl]propenoic acid, trifluoroacetate salt], the values for the IC50 in assay [1] and in assay [2] were 17300 nM and 24.5 nM, respectively.
